Laboratory results published in patent US20160215111A1, “MATERIALS AND METHODS” (THE UNIVERSITY OF SYDNEY, priority 2013, published 2016).

Assays:
[1] = tested on: Human dermal fibroblasts; assay: Cell attachment of human dermal fibroblasts to peptide coated polymer samples (crystal violet); type: cell-based; conditions: for % cell attachment / maximal % cell attachment: BSA blocked; for cell binding activity after dry autoclaving / cell binding activity after heating: coated at pH 10, 0 mM NaCl; for cell binding activity after dry autoclaving: 120° C., 20 min (FIG. 10); for maximal % cell attachment: coating concentration 50 μM
Method: PFTE and polystyrene were obtained from Goodfellow. PEEK was sourced from Vitrex. […] Human dermal fibroblasts were cultured in a humidified 5% CO2 atmosphere in DMEM (Invitrogen) supplemented with 10% (v/v) fetal calf serum (Invitrogen), and passaged 1 in 10 every 3-4 days. Unless stated otherwise all other reagents were purchased from Sigma.
Where stated samples were incubated in 2% Tween-20 for 10 min at 70° C. then washed with PBS. Where stated non-specific cell binding was prevented with incubation in 10 mg/ml heat denatured (80° C./10 min) BSA for 1 hour at room temperature. Confluent 75 cm^2 flasks of cells were harvested by trypsinization, and the cell density adjusted to 5×10^5 cells/ml in serum free DMEM. The cells were added to the samples for 60 min at 37° C., 5% CO2 then non-adherent cells were removed with 2×1 PBS washes. Adherent cells were fixed with the addition of 5% glutaraldehyde (w/v) in PBS for 20 min. The samples were washed 3×PBS, and then the cells were stained with 0.1% (w/v) crystal violet in 0.2M MES pH 5.0 for 1 h at room temperature. After washing extensively with dH2O the samples were transferred to fresh tissue culture plates and the crystal violet was solubilised in 10% (v/v) acetic acid. The absorbance was measured at 570 nm using a plate reader. The absorbance was converted to % cell attachment using the equation of a linear regression fit of standard known cell number controls.
Samples were peptide coated as for cell attachment analysis then washed 3× with PBS. […] The samples were then autoclaved at 120° C., 100 kPa above atmospheric pressure with steam for 20 min. For slow cooled samples the temperature of the autoclave returned to room temperature over a period of 4 hours. The other samples were removed once the autoclave reached 70° C. and were immediately immersed in room temperature PBS. All samples were washed 3× with PBS prior to measuring cell attachment.

[2] = tested on: Human dermal fibroblasts; assay: Cell morphology / spreading and patterned cell distribution by phase contrast microscopy; type: cell-based
Method: PFTE and polystyrene were obtained from Goodfellow. PEEK was sourced from Vitrex. Peptide 36 ([…]) and peptide 36 short ([…]) were synthesized by Auspep. Recombinant human tropoelastin corresponding to amino acid residues 27-724 of GenBank entry AAC98394 (gi 182020) was expressed and purified as previously described. Human dermal fibroblasts were cultured in a humidified 5% CO2 atmosphere in DMEM (Invitrogen) supplemented with 10% (v/v) fetal calf serum (Invitrogen), and passaged 1 in 10 every 3-4 days. Unless stated otherwise all other reagents were purchased from Sigma.
Samples were contact or shadow masked during PIII treatment by layering 3 mm wide low contact ADH kapton tape (contact mask) (Associated Gaskets, Australia) or a 130 μm stainless steel plate (shadow mask) (Mastercut Technologies, Australia) over the sample during PIII treatment. The masks were removed immediately after treatment.
Samples were peptide 36 coated, BSA blocked and cell seeded as for cell attachment. After incubation for 90 min the cells were fixed with the addition of 37% (w/v) formaldehyde directly to the cell media to achieve a final concentration of 3% (w/v) for 20 min. For opaque samples the cells were crystal violet stained as for cell attachment. The cell morphology was then observed by phase contrast microscopy.

[3] = tested on: rabbit polyclonal antibody with specificity against the C-terminal RKRK motif of tropoelastin; assay: C-terminal ELISA detection of RKRK exposure; type: binding; conditions: for C-terminal ELISA detection: tissue culture plastic, increasing coating concentration (FIG. 13)
From the text: Rabbit polyclonal antibodies against exon 36 were raised by Biomatik. A peptide corresponding to exon 36 ([…]) conjugated to Keyhole Limpet Hemocyanin was used to immunize New Zealand rabbits. Exon 36 specific antibodies were purified from the resulting immune serum by affinity chromatography using the immunogen peptide. […] Therefore this protocol produced a rabbit polyclonal antibody with specificity against the C-terminal RKRK motif of tropoelastin.
Untreated or PIII treated polystyrene was incubated in peptide 36 containing buffer (10 mM PO4, 150 mM NaCl) of increasing pH for 1 hour at room temperature. After peptide immobilization the samples were washed 3× with PBS to remove non-bound peptide. Background antibody binding was blocked with 3% (w/v) BSA for 1 hour at room temperature. The primary rabbit-anti-C-terminal antibody was diluted to 1:5000 and added to the samples for 1 hour at room temperature. Non-bound antibody was removed with 3×PBS washes then detected with 1:10,000 diluted goat anti-rabbit whole IgG-HRP conjugated secondary antibody for 1 hour at room temperature. The secondary antibody was removed, the samples washed 3×PBS washes and then transferred to fresh tissue culture plates. ABTS solution (40 mM ABTS, 0.1 mM NaOAc, 0.05M NaH2PO4, 0.01% H2O2, pH 5) was added for 30 min and the absorbance read at 405 nm.

[4] = PIII treated polystyrene (FIG. 3A, B)
[5] = post PIII allylamine vapor treated PTFE (30 min exposure), versus PIII treated PTFE (FIG. 6B)
[6] = untreated polystyrene (FIG. 3A, B)
[7] = tape or shadow masked PIII treated polymer (polystyrene, PTFE; FIG. 4)
[8] = untreated polystyrene (FIG. 3C)

ACLGKACG [ΔRKRK peptide 36, peptide 36 where the RKRK motif was deleted]
cell binding activity ([1]; PIII treated PTFE (FIG. 6B)): low levels of cell binding activity | cell attachment [1, 4]: did not support cell binding | cell binding activity [1, 5]: low levels of cell binding activity | cell binding activity ([1]; untreated PTFE (FIG. 6B)): low levels of cell binding activity | cell attachment [1, 6]: did not support cell binding | cell spreading ([2]; PIII treated polystyrene (FIG. 3C)): did not elicit cell spreading | patterned cell distribution [2, 7]: absence of cell attachment and spreading | cell spreading [2, 8]: did not elicit cell spreading | C-terminal ELISA detection [3]: not capable of detecting

ACLGKACGRKRK [peptide 36]
% cell attachment ([1]; 800 second PIII treated PTFE): 4.3±1.8% | cell binding activity ([1]; PIII treated PTFE (FIG. 6B)): low levels | cell binding activity ([1]; PIII treated PTFE and PEEK, pH 6 association buffer (FIG. 7C, D)): low levels of cell binding activity | cell binding activity ([1]; PIII treated PTFE and PEEK, pH 10 association buffer (FIG. 7C, D)): high levels of cell binding activity | cell binding activity after dry autoclaving ([1]; PIII treated PTFE): not cell adhesive | cell binding activity after heating ([1]; PIII treated PTFE, incubations of 70° C. and above (FIG. 9)): baseline levels of cell binding | cell binding activity after liquid autoclaving ([1]; PIII treated PTFE, pH 6, 150 mM NaCl autoclave liquid (FIG. 10A)): reduced to background levels | cell binding activity after liquid autoclaving ([1]; PIII treated PTFE, pH 10, 0 mM NaCl autoclave liquid, gradual cooling to room temperature (FIG. 10C)): comparable peptide 36-cell binding activity to the no-autoclave control | cell binding activity after liquid autoclaving ([1]; PIII treated PTFE, pH 10, 0 mM NaCl autoclave liquid, rapid cooling (FIG. 10B)): partial peptide 36-cell binding activity was retained | cell attachment [1, 4]: not cell adhesive | cell binding activity ([1]; PIII treated polystyrene, association buffer pH 10, 150 mM NaCl (FIG. 7B)): maximal cell binding activity | cell binding activity ([1]; PIII treated polystyrene, association buffers of up to pH 8, 150 mM NaCl (FIG. 7B)): low levels of cell biding activity | maximal % cell attachment ([1]; PIII treated polystyrene): 5.1±0.5% | cell binding activity ([1]; PIII treated surface, 150 mM NaCl association buffer, pH 7.4 (FIG. 7A)): background levels of binding | cell binding activity ([1]; PIII treated surface, low ionic strength association buffer, pH 7.4 (FIG. 7A)): high levels of peptide 36-cell binding activity | peptide dependent cell attachment ([1]; PTFE, 160 seconds of N2 plasma treatment): background levels | % cell attachment ([1]; PTFE, N2 plasma treatments up to 20 seconds before coating): 99.3-106.9% | cell binding activity [1, 5]: far greater levels of cell binding activity | cell binding activity ([1]; untreated PTFE (FIG. 6B)): high levels of cell binding | cell binding activity after dry autoclaving ([1]; untreated PTFE): retained | cell binding activity after heating ([1]; untreated PTFE, heated above 40° C. (FIG. 9)): not altered | cell binding activity after liquid autoclaving ([1]; untreated PTFE, regardless of the liquid buffer conditions (FIG. 10)): lost | cell binding activity after heating ([1]; untreated and PIII treated PTFE, heated 10 min up to 40° C. in pH 7.4, 150 mM NaCl (FIG. 9)): remained cell adhesive | cell binding activity without autoclaving ([1]; untreated and PIII treated PTFE, coated in pH 10, 0 mM NaCl buffer (FIG. 10)): cell adhesive on both untreated and PIII treated PTFE | cell attachment [1, 6]: high levels of cell adhesion | cell attachment after Tween-20 washing ([1]; untreated polystyrene, Tween-20 washed): background levels | cell binding activity ([1]; untreated polystyrene, 50 μM peptide, 10 mM PO4 pH 7.4, independent of NaCl content of association buffer (FIG. 7A)): high levels of cell-binding activity | maximal % cell attachment ([1]; untreated polystyrene): 98.6±12.5% | cell binding activity ([1]; untreated polystyrene, insensitive to pH of association buffer, 150 mM NaCl (FIG. 7B)): high levels of cell binding activity | patterned cell distribution ([2]; tape masked PIII treated PTFE, association buffer pH 7.4, 150 mM NaCl (FIG. 11)): retained selectively by peptide 36 on the untreated regions | patterned cell distribution ([2]; tape masked PIII treated PTFE, association buffer pH 10, 0 mM NaCl (FIG. 11)): cell binding on both the untreated and PIII treated sections | patterned cell distribution ([2]; tape masked PIII treated PTFE, washed with 2% Tween-20 or 5% SDS in pH 10, 0 mM NaCl at 70° C., gradual cooling (FIG. 11)): cell attachment exclusively in the PIII treated regions | patterned cell distribution [2, 7]: clearly restricted to the untreated regions | cell spreading after Tween-20 washing ([2]; untreated polymer, Tween-20 washed): removed peptide 36 dependent cell spreading activity | cell spreading [2, 8]: phase dark and flattened | C-terminal ELISA detection of RKRK exposure ([3]; PIII treated polystyrene, association buffers with pH up to 8 (FIG. 8B)): low levels of peptide 36 RKRK exposure | C-terminal ELISA detection of RKRK exposure ([3]; PIII treated polystyrene, coating concentrations up to 50 μM, 10 mM PO4, 150 mM NaCl, pH 7.4 (FIG. 8A)): little RKRK-dependent antibody detection | C-terminal ELISA detection of RKRK exposure ([3]; PIII treated polystyrene, pH 10 association buffer, compared with untreated polystyrene (FIG. 8B)): not statistically different to those obtained on untreated polystyrene | C-terminal ELISA detection [3]: detected | C-terminal ELISA detection of RKRK exposure ([3]; untreated polystyrene, 50 μM peptide, association buffer of increasing pH (FIG. 8B)): detected peptide 36 across the entire range of pH | C-terminal ELISA detection of RKRK exposure ([3]; untreated polystyrene, 10 mM PO4, 150 mM NaCl, pH 7.4, increase up to 10 μM coating, none further at 50 μM (FIG. 8A)): detected peptide 36 bound to the surface in a coating concentration dependent manner
